Experimental data taken from patent US20230355810A1, “Semifluorocarbon Compound Containing Contrast Agent” (B. Braun Melsungen AG, priority 2013, published 2023).

What was measured:
[1] = Density measurement of mixtures of MCT and F6H8; format: physicochemical; conditions: based on the total weight of the oil phase, FIG. 1C
Excerpt: By adapting the density of the oil phase to the density of the aqueous phase coalescence phenomena of the droplets as well as sedimentation phenomena, which destabilize the emulsion, can be decreased.
At about 38.5 wt.-% of F6H8 and about 61.5 wt.-% of MCT, (weight based on the total weight of the oil phase) the density of the oil mixture corresponds to the density of the aqueous phase.

[2] = Miscibility / solubility of the fluorinated compound in the oil (MCT, PFOB); format: physicochemical
Description: The emulsion of the invention comprises the semifluorinated compound and preferably the mid-chain triglyceride (MCT). According to one aspect of the invention the oil components of the emulsion form a homogeneous solution at 20° C. […] The oil phase may comprise further oil components such as long chain fatty acid triglycerides based on vegetable oil or marine oils such as fish oil. The amount of the further oil components is preferable adjusted that a completely miscible oil phase is maintained. Generally, the amount of oil components which are different from the semifluorinated compound and triglyceride b) which is preferably the MCT, are less than 50 weight percent (wt.-%), preferably less than 40 wt.-%, more preferably less than 30 wt.-%, further preferably less than 20 wt.-%, especially less than 10 wt.-%, in particular less than 5 wt.-% or essentially free, wherein the amount is based on the total weight of the oil components.
Perfluoroctylbromide (PFOB) is a known contrast agent for the magnetic resonance spectroscopy.

CCCCCCCCC(F)(F)C(F)(F)C(F)(F)C(F)(F)C(F)(F)C(F)(F)F [Example F6H8, perfluorohexyloctane]
share of F6H8 in the oil phase (rest MCT, about 61.5 wt.-%) at which the density of the oil mixture corresponds to the density of the aqueous phase [1]: about 38.5 wt.-%
miscibility with MCT ([2]; 20° C.): miscible at 20 °C

FC(F)(F)C(F)(F)C(F)(F)C(F)(F)C(F)(F)C(F)(F)C(F)(F)C(F)(F)C(F)(F)C(F)(F)Br [PFDB, perfluorodecylbromide]
solubility in PFOB [2]: can be dissolved in PFOB

FC(F)(F)C(F)(F)C(F)(F)C(F)(F)C(F)(F)C(F)(F)C(F)(F)C(F)(F)Br [PFOB, Perfluoroctylbromide]
solubility in MCT [2]: cannot be dissolved in MCT
